Series [1] is described as follows: Molar enthalpy of transition or fusion. As to conditions: Crystal; DSC.

± gives the expanded uncertainty stated by the source.

For `COc1ccc(C2(c3ccc(OC)c(C)c3)OC(=O)c3ccccc32)cc1C` [3,3-bis(4-methoxy-3-methylphenyl)-1(3H)-isobenzofuranone], the Normal melting temperature (Crystal, DTA) worked out at 110.1 ± 0.4 °C. In addition, under “Glass, Adiabatic calorimetry”, the Glass transition temperature was 41.2 ± 0.1 °C. Moreover, the “Molar enthalpy of transition or fusion” value in series [1] worked out at 6.67 ± 0.143 kcal/mol.
